Our source for the MIC values is ChEMBL document CHEMBL1153280, “Synthesis and in vitro activity of dicationic bis-benzimidazoles as a new class of anti-MRSA and anti-VRE agents” (2009).

Assay type in all cases: functional
One experiment has as its system Bacillus subtilis. Put plainly: Antibacterial activity against Bacillus subtilis ATCC 23857 by NCCLS method.
In the next experiment the test system is Clostridium perfringens. Description: Antibacterial activity against Clostridium perfringens ATCC 10388 by NCCLS method.
Experiment [1] has as its system Staphylococcus aureus. Description: Antibacterial activity against methicillin-resistant Staphylococcus aureus ATCC 33591 by NCCLS method.
In the next experiment the test system is Bacteroides fragilis. Description: Antibacterial activity against Bacteroides fragilis ATCC 23745 by NCCLS method.
In another experiment the test system is Bacillus cereus. Put plainly: Antibacterial activity against Bacillus cereus ATCC 11778 by NCCLS method.
The test system of another experiment is Enterococcus faecium. Put plainly: Antibacterial activity against vancomycin-resistant Enterococcus faecium ATCC 700221 by NCCLS method.
For experiment [2], the system named is Staphylococcus epidermidis. Description: Antibacterial activity against Staphylococcus epidermidis ATCC 12228 by NCCLS method.
The test system of the next experiment is Enterococcus faecalis. Description: Antibacterial activity against vancomycin-resistant Enterococcus faecalis ATCC 51575 by NCCLS method.
In experiment [3] the test system is Staphylococcus epidermidis. Description: Antibacterial activity against methicillin-resistant Staphylococcus epidermidis ATCC 51625 by NCCLS method.
The test system of experiment [4] is Staphylococcus aureus. Put plainly: Antibacterial activity against multidrug-resistant Staphylococcus aureus BAA-39 by NCCLS method.
Another experiment deals with Streptococcus pneumoniae. Put plainly: Antibacterial activity against Streptococcus pneumoniae ATCC 6301 by NCCLS method.
Experiment [5] concerns Staphylococcus aureus. Put plainly: Antibacterial activity against Staphylococcus aureus ATCC 29213 by NCCLS method.

Converted amounts (≈) assume the structure as drawn.

The MIC is the lowest concentration found to suppress growth. High values mean weaker potency, low ones greater potency. For `CC(C)NC(=N)c1ccc2[nH]c(-c3ccc(CCc4ccc(-c5nc6ccccc6[nH]5)cc4)cc3)nc2c1`, the MIC in the experiment with Bacillus subtilis is greater than 32 µg/mL; in the experiment with Clostridium perfringens, 1 µg/mL (≈ 2.01 µM); against Staphylococcus aureus [1], greater than 32 µg/mL; with Bacteroides fragilis, greater than 32 µg/mL; with Bacillus cereus, 32 µg/mL (≈ 64.2 µM); against Enterococcus faecium, 16 µg/mL (≈ 32.1 µM). Besides, the minimum inhibitory concentration (MIC) in [2] was 4 µg/mL (≈ 8.02 µM); with Enterococcus faecalis, greater than 32 µg/mL; in experiment [3], 8 µg/mL (≈ 16 µM); in the experiment on Staphylococcus aureus [4], greater than 32 µg/mL; against Streptococcus pneumoniae it was greater than 32 µg/mL; against Staphylococcus aureus [5] it was greater than 32 µg/mL.

As for `CC(C)NC(=N)c1ccc(CCc2ccc(-c3nc4cc(C(=N)NC(C)C)ccc4[nH]3)cc2)cc1`, the MIC with Bacillus subtilis was 1 µg/mL (≈ 2.14 µM); in the experiment with Clostridium perfringens it was greater than 32 µg/mL; against Staphylococcus aureus [1], 4 µg/mL (≈ 8.57 µM); in the experiment with Bacteroides fragilis, 32 µg/mL (≈ 68.6 µM); against Bacillus cereus, 0.5 µg/mL (≈ 1.07 µM); against Enterococcus faecium, 1 µg/mL (≈ 2.14 µM). Also, the minimum inhibitory concentration (MIC) was found to be 0.25 µg/mL (≈ 0.536 µM) in experiment [2]; 2 µg/mL (≈ 4.29 µM) against Enterococcus faecalis; 1 µg/mL (≈ 2.14 µM) in experiment [3]; 8 µg/mL (≈ 17.1 µM) in the experiment on Staphylococcus aureus [4]; 0.12 µg/mL (≈ 0.257 µM) against Streptococcus pneumoniae; 4 µg/mL (≈ 8.57 µM) in the experiment on Staphylococcus aureus [5].

In the case of `c1cc(-c2nc3cc(C4=NCCN4)ccc3[nH]2)ccc1CCc1ccc(-c2nc3cc(C4=NCCN4)ccc3[nH]2)cc1`, the MIC against Bacillus subtilis, with Clostridium perfringens, against Staphylococcus aureus [1], in the experiment with Bacteroides fragilis, in the experiment on Bacillus cereus and with Enterococcus faecium was greater than 64 µg/mL in each case. Besides, the MIC (in [2]; against Enterococcus faecalis; in experiment [3]; in the experiment with Staphylococcus aureus [4]; against Streptococcus pneumoniae; in the experiment on Staphylococcus aureus [5]) was greater than 64 µg/mL each time.

Turning to `N=C(NC1CCCC1)c1ccc2[nH]c(-c3ccc(CCc4ccc(-c5nc6cc(C(=N)NC7CCCC7)ccc6[nH]5)cc4)cc3)nc2c1`, the MIC in the experiment on Bacillus subtilis was 1 µg/mL (≈ 1.58 µM); with Clostridium perfringens, 4 µg/mL (≈ 6.3 µM); in the experiment on Staphylococcus aureus [1], 0.5 µg/mL (≈ 0.788 µM); in the experiment with Bacteroides fragilis, greater than 32 µg/mL; with Bacillus cereus it was 0.5 µg/mL (≈ 0.788 µM); against Enterococcus faecium it was 0.25 µg/mL (≈ 0.394 µM). The MIC in experiment [2] was less than 0.06 µg/mL; with Enterococcus faecalis, 2 µg/mL (≈ 3.15 µM); in experiment [3], 0.12 µg/mL (≈ 0.189 µM); with Staphylococcus aureus [4] it was 1 µg/mL (≈ 1.58 µM); in the experiment with Streptococcus pneumoniae, 0.25 µg/mL (≈ 0.394 µM); against Staphylococcus aureus [5], 1 µg/mL (≈ 1.58 µM).

Regarding `CC(C)NC(=N)c1ccc2[nH]c(-c3ccc(CCc4ccc(-c5nc6cc(C(=N)NC(C)C)ccc6[nH]5)cc4)cc3)nc2c1`, the MIC was determined as 0.12 µg/mL (≈ 0.206 µM) against Bacillus subtilis; 0.25 µg/mL (≈ 0.429 µM) against Clostridium perfringens; 0.25 µg/mL (≈ 0.429 µM) with Staphylococcus aureus [1]; 0.5 µg/mL (≈ 0.858 µM) against Bacteroides fragilis; 0.12 µg/mL (≈ 0.206 µM) against Bacillus cereus; 0.12 µg/mL (≈ 0.206 µM) against Enterococcus faecium. In addition, the MIC in [2] was less than 0.06 µg/mL; in the experiment with Enterococcus faecalis, 0.25 µg/mL (≈ 0.429 µM); in experiment [3], 0.125 µg/mL (≈ 0.214 µM); with Staphylococcus aureus [4], 0.5 µg/mL (≈ 0.858 µM); with Streptococcus pneumoniae it was less than 0.06 µg/mL; in the experiment with Staphylococcus aureus [5] it was 0.25 µg/mL (≈ 0.429 µM).

For `N=C(c1ccc2[nH]c(-c3ccc(CCc4ccc(-c5nc6cc(C(=N)N7CCCC7)ccc6[nH]5)cc4)cc3)nc2c1)N1CCCC1`, the MIC with Bacillus subtilis was determined as 2 µg/mL (≈ 3.3 µM); against Clostridium perfringens, 2 µg/mL (≈ 3.3 µM); in the experiment on Staphylococcus aureus [1], 0.25 µg/mL (≈ 0.412 µM); with Bacteroides fragilis, 2 µg/mL (≈ 3.3 µM); against Bacillus cereus, 1 µg/mL (≈ 1.65 µM); against Enterococcus faecium it was 2 µg/mL (≈ 3.3 µM). In addition, the MIC is 0.25 µg/mL (≈ 0.412 µM) in experiment [2]; 16 µg/mL (≈ 26.4 µM) against Enterococcus faecalis; 0.25 µg/mL (≈ 0.412 µM) in [3]; 0.5 µg/mL (≈ 0.824 µM) in the experiment on Staphylococcus aureus [4]; greater than 32 µg/mL against Streptococcus pneumoniae; 0.5 µg/mL (≈ 0.824 µM) in the experiment on Staphylococcus aureus [5].

As to `COc1ccc(CCc2ccc(-c3nc4ccc(C(=N)NC(C)C)cc4[nH]3)cc2)cc1`, the MIC with Bacillus subtilis is 4 µg/mL (≈ 9.7 µM); in the experiment with Clostridium perfringens, 16 µg/mL (≈ 38.8 µM); against Staphylococcus aureus [1], 4 µg/mL (≈ 9.7 µM); against Bacteroides fragilis, greater than 32 µg/mL; in the experiment with Bacillus cereus, 4 µg/mL (≈ 9.7 µM); against Enterococcus faecium, 8 µg/mL (≈ 19.4 µM). The MIC worked out at 4 µg/mL (≈ 9.7 µM) in experiment [2]; 32 µg/mL (≈ 77.6 µM) in the experiment on Enterococcus faecalis; 4 µg/mL (≈ 9.7 µM) in experiment [3]; 8 µg/mL (≈ 19.4 µM) with Staphylococcus aureus [4]; 8 µg/mL (≈ 19.4 µM) with Streptococcus pneumoniae; 4 µg/mL (≈ 9.7 µM) against Staphylococcus aureus [5].

Consider `O=C(O)c1cn(C2CC2)c2cc(N3CCNCC3)c(F)cc2c1=O` [CIPROFLOXACIN], for which the MIC is no more than 0.12 µg/mL in the experiment with Bacillus subtilis; no more than 0.12 µg/mL against Staphylococcus aureus [1]; 0.5 µg/mL (≈ 1.51 µM) in the experiment with Bacteroides fragilis; no more than 0.12 µg/mL against Bacillus cereus; greater than 64 µg/mL with Enterococcus faecium; no more than 0.12 µg/mL in experiment [2]. In addition, the minimum inhibitory concentration (MIC) is 0.5 µg/mL (≈ 1.51 µM) against Enterococcus faecalis, no more than 0.12 µg/mL in [3], 8 µg/mL (≈ 24.1 µM) against Staphylococcus aureus [4] and 0.5 µg/mL (≈ 1.51 µM) in the experiment with Staphylococcus aureus [5].

Take `CN[C@H](CC(C)C)C(=O)N[C@H]1C(=O)N[C@@H](CC(N)=O)C(=O)N[C@H]2C(=O)N[C@H]3C(=O)N[C@H](C(=O)N[C@H](C(=O)O)c4cc(O)cc(O)c4-c4cc3ccc4O)[C@H](O)c3ccc(c(Cl)c3)Oc3cc2cc(c3O[C@@H]2O[C@H](CO)[C@@H](O)[C@H](O)[C@H]2O[C@H]2C[C@](C)(N)[C@H](O)[C@H](C)O2)Oc2ccc(cc2Cl)[C@H]1O` [VANCOMYCIN]: the MIC is 0.12 µg/mL (≈ 0.0828 µM) against Bacillus subtilis; 0.12 µg/mL (≈ 0.0828 µM) in the experiment on Clostridium perfringens; 4 µg/mL (≈ 2.76 µM) in the experiment on Bacteroides fragilis; greater than 64 µg/mL against Enterococcus faecium; greater than 64 µg/mL in the experiment on Enterococcus faecalis; 1 µg/mL (≈ 0.69 µM) in the experiment on Streptococcus pneumoniae.
